IC50 data for 14 compounds are collected here from patent publication US8613914B2, “Peptidomimetic sulfamide compounds and antiviral uses thereof” (Novartis AG, priority 2009, dated 2013).

Sequence of HCV NS3-4A serine protease (full-length NS3-4A protein) (P26664 1027-1657): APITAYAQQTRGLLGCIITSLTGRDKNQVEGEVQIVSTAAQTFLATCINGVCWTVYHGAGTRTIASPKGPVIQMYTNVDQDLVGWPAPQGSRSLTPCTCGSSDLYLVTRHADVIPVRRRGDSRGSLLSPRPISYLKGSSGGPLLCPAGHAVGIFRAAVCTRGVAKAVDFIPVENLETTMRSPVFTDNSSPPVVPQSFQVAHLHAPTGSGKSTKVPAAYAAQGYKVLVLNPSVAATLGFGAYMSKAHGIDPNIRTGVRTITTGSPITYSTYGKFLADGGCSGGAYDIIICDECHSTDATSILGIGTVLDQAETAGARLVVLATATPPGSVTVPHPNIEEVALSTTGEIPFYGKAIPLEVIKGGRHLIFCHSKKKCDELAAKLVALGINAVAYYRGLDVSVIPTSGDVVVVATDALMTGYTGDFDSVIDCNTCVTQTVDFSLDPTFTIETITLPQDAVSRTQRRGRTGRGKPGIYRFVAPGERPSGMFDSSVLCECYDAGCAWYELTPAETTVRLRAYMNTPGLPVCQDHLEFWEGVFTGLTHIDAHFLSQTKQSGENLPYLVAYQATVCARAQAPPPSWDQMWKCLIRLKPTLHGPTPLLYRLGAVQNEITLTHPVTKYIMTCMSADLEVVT
Sequence of HCV NS3-4A serine protease (full-length NS3-4A protein) (P26664 1658-1711 partner): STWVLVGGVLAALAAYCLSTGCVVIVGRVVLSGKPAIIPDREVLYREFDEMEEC

This experiment has as its target HCV NS3-4A serine protease (full-length NS3-4A protein) (Hepatitis C virus genotype 1a (isolate 1) (HCV), UniProt P26664). Briefly: HCV NS3-4A protease assay. The class given is biochemical, HCV genotype 1a. The following applies: strain HCV-1, fluorogenic peptide substrate, read-out: Protease assay Ex. 12 IC50. The procedure:
The inhibitory activity of certain compounds of Table A against HCV NS3-4A serine protease is determined in a homogenous assay using the full-length NS3-4A protein (genotype 1a, strain HCV-1) and a commercially available internally-quenched fluorogenic peptide substrate as described by Taliani, M., et al. 1996 Anal. Biochem. 240:60-67, which is incorporated by reference in its entirety.
Turning to `C=C[C@@H]1C[C@]1(NC(=O)[C@@H]1C[C@@]2(CN1C(=O)[C@@H](NC(=O)[C@@H](NC(=O)[C@@H]1CCCCN1C(C)C)c1ccccc1)C(C)(C)C)C(C)(C)C21CCC1)C(=O)NS(=O)(=O)N1CCCC1` [Compound 104, (5R,8S)-7-[(2S)-2-{[(2S)-2-({[(2S)-1-isopropylpiperidin-2-yl]carbonyl}amino)-2-phenylacetyl]amino}-3,3-dimethylbutanoyl]-10,10-dimethyl-N-{(1R,2S)-1-[(pyrrolidin-1-ylsulfonyl)carbamoyl]-2-vinylcyclopropyl}-7-azadispiro[3.0.4.1]decane-8-carboxamide], the half-inhibitory concentration (IC50) stood at 15 nM.
The same measure for `C=C[C@@H]1C[C@]1(NC(=O)[C@@H]1C[C@@]2(CN1C(=O)[C@@H](NC(=O)[C@@H](NC(=O)[C@@H]1CCCCN1C(C)C)C1CCOCC1)C1(C)CCOCC1)C(C)(C)C21CCC1)C(=O)NS(=O)(=O)N1CCCC1` [Compound 127, (5R,8S)-7-[(2S)-2-{[(2S)-2-({[(2S)-1-isopropylpiperidin-2-yl]carbonyl}amino)-2-(tetrahydro-2H-pyran-4-yl)acetyl]amino}-2-(4-methyltetrahydro-2H-pyran-4-yl)acetyl]-10,10-dimethyl-N-{(1R,2S)-1-[(pyrrolidin-1-ylsulfonyl)carbamoyl]-2-vinylcyclopropyl}-7-azadispiro[3.0.4.1]decane-8-carboxamide]: 4 nM.
Turning to `C=C[C@@H]1C[C@]1(NC(=O)[C@@H]1C[C@@]2(CN1C(=O)[C@@H](NC(=O)[C@@H](NC(=O)c1cc3ccccc3o1)C1CCCCC1)C(C)(C)C)C(C)(C)C21CCC1)C(=O)NS(=O)(=O)N1CCCC1` [Compound 191, (5R,8S)-7-[(2S)-2-({[(1-benzofuran-2-ylcarbonyl)amino](cyclohexyl)acetyl}amino)-3,3-dimethylbutanoyl]-10,10-dimethyl-N-{(1R,2S)-1-[(pyrrolidin-1-ylsulfonyl)carbamoyl]-2-vinylcyclopropyl}-7-azadispiro[3.0.4.1]decane-8-carboxamide], the IC50 amounted to 55 nM.
Then `C=C[C@@H]1C[C@]1(NC(=O)[C@@H]1C[C@@]2(CN1C(=O)[C@@H](NC(=O)[C@@H](NC(=O)[C@@H]1CCCN(CC)C1)C(C)(C)C)C(C)(C)C)C(C)(C)C21CCC1)C(=O)NS(=O)(=O)N1CCCC1` [Compound 4, (5R,8S)-7-[(2S)-2-{[(2S)-2-({[(3R)-1-ethylpiperidin-3-yl]carbonyl}amino)-3,3-dimethylbutanoyl]amino}-3,3-dimethylbutanoyl]-10,10-dimethyl-N-{(1R,2S)-1-[(pyrrolidin-1-ylsulfonyl)carbamoyl]-2-vinylcyclopropyl}-7-azadispiro[3.0.4.1]decane-8-carboxamide], with 35 nM.
The same measure for `C=C[C@@H]1C[C@]1(NC(=O)[C@@H]1C[C@@]2(CN1C(=O)[C@@H](NC(=O)[C@@H](NC(=O)C(C)(C)N1CCCC1)C(C)(C)C)C(C)(C)C)C(C)(C)C21CCC1)C(=O)NS(=O)(=O)N1CCCC1` [Compound 10, (5R,8S)-7-[(2S)-2-({(2S)-3,3-dimethyl-2-[(2-methyl-2-pyrrolidin-1-ylpropanoyl)amino]butanoyl}amino)-3,3-dimethylbutanoyl]-10,10-dimethyl-N-{(1R,2S)-1-[(pyrrolidin-1-ylsulfonyl)carbamoyl]-2-vinylcyclopropyl}-7-azadispiro[3.0.4.1]decane-8-carboxamide]: 65 nM; for `C=C[C@@H]1C[C@]1(NC(=O)[C@@H]1C[C@@]2(CN1C(=O)[C@@H](NC(=O)[C@@H](NC(=O)[C@@H]1CCCCN1CC)C1CCCC1)C(C)(C)C)C(C)(C)C21CCC1)C(=O)NS(=O)(=O)N(CC)CC` [Compound 81, (5R,8S)-7-[(2S)-2-{[(2S)-2-cyclopentyl-2-({[(2S)-1-ethylpiperidin-2-yl]carbonyl}amino)acetyl]amino}-3,3-dimethylbutanoyl]-N-[(1R,2S)-1-{[(diethylamino)sulfonyl]carbamoyl}-2-vinylcyclopropyl]-10,10-dimethyl-7-azadispiro[3.0.4.1]decane-8-carboxamide]: 4 nM.
Then `C=C[C@@H]1C[C@]1(NC(=O)[C@@H]1C[C@@]2(CN1C(=O)[C@@H](NC(=O)[C@@H](NC(=O)[C@@H]1CCCCN1C(C)C)C1CCCCC1)C(C)(C)C)C(C)(C)C21CCC1)C(=O)NS(=O)(=O)N(C)CC(F)F` [Compound 83, (5R,8S)-7-[(2S)-2-{[(2S)-2-cyclohexyl-2-({[(2S)-1-isopropylpiperidin-2-yl]carbonyl}amino)acetyl]amino}-3,3-dimethylbutanoyl]-N-[(1R,2S)-1-({[(2,2-difluoroethyl)(methyl)amino]sulfonyl}carbamoyl)-2-vinylcyclopropyl]-10,10-dimethyl-7-azadispiro[3.0.4.1]decane-8-carboxamide], with 2 nM.
Turning to `CC[C@@H]1C[C@]1(NC(=O)[C@@H]1C[C@@]2(CN1C(=O)[C@@H](NC(=O)[C@@H](NC(=O)[C@@H]1CCCCN1C(C)C)C1CCCCC1)C(C)(C)C)C(C)(C)C21CCC1)C(=O)NS(=O)(=O)N(CC)CC` [Compound 203, (5R,8S)-7-[(2S)-2-{[(2S)-2-cyclohexyl-2-({[(2S)-1-isopropylpiperidin-2-yl]carbonyl}amino)acetyl]amino}-3,3-dimethylbutanoyl]-N-(1-{[(diethylamino)sulfonyl]carbamoyl}-2-ethylcyclopropyl)-10,10-dimethyl-7-azadispiro[3.0.4.1]decane-8-carboxamide], the IC50 stood at 8 nM.
Then `C=C[C@@H]1C[C@]1(NC(=O)[C@@H]1C[C@@]2(CN1C(=O)[C@@H](NC(=O)[C@@H](NC(=O)[C@@H]1CCCCN1C(C)C)C1CCCCC1)C(C)(C)C)C(C)(C)C21CCC1)C(=O)NS(=O)(=O)NC1CCC1` [Compound 57, (5R,8S)-N-[(1R,2S)-1-{[(cyclobutylamino)sulfonyl]carbamoyl}-2-vinylcyclopropyl]-7-[(2S)-2-{[(2S)-2-cyclohexyl-2-({[(2S)-1-isopropylpiperidin-2-yl]carbonyl}amino)acetyl]amino}-3,3-dimethylbutanoyl]-10,10-dimethyl-7-azadispiro[3.0.4.1]decane-8-carboxamide], with 6.5 nM; and `C=C[C@@H]1C[C@]1(NC(=O)[C@@H]1C[C@@]2(CN1C(=O)[C@@H](NC(=O)[C@@H](NC(=O)[C@H]1CCCCN1C(C)C)C1CCCCC1)C(C)(C)C)C(C)(C)C21CCC1)C(=O)NS(=O)(=O)N1CCCC1` [Compound 47, (5R,8S)-7-[(2S)-2-{[(2S)-2-cyclohexyl-2-({[(2R)-1-isopropylpiperidin-2-yl]carbonyl}amino)acetyl]amino}-3,3-dimethylbutanoyl]-10,10-dimethyl-N-{(1R,2S)-1-[(pyrrolidin-1-ylsulfonyl)carbamoyl]-2-vinylcyclopropyl}-7-azadispiro[3.0.4.1]decane-8-carboxamide], with 4.8 nM; and `C=C[C@@H]1C[C@]1(NC(=O)[C@@H]1C[C@@]2(CN1C(=O)[C@@H](NC(=O)[C@@H](NC(=O)[C@@H]1CCCN1CC)C1(C)CCOCC1)C1(C)CCCCC1)C(C)(C)C21CCC1)C(=O)NS(=O)(=O)N(CC)CC` [Compound 157, (5R,8S)-N-[(1R,2S)-1-{[(diethylamino)sulfonyl]carbamoyl}-2-vinylcyclopropyl]-7-[(2S)-2-{[(2S)-2-({[(2S)-1-ethylpyrrolidin-2-yl]carbonyl}amino)-2-(4-methyltetrahydro-2H-pyran-4-yl)acetyl]amino}-2-(1-methylcyclohexyl)acetyl]-10,10-dimethyl-7-azadispiro[3.0.4.1]decane-8-carboxamide], with 1 nM.
The same measure for `C=C[C@@H]1C[C@]1(NC(=O)[C@@H]1C[C@@]2(CN1C(=O)[C@@H](NC(=O)[C@@H](NC(=O)[C@@H]1CCCCN1CCF)C1CCCCC1)C1CCOCC1)C(C)(C)C21CCC1)C(=O)NS(=O)(=O)N1CCCC1` [Compound 75, (5R,8S)-7-[(2S)-2-{[(2S)-2-cyclohexyl-2-({[(2S)-1-(2-fluoroethyl)piperidin-2-yl]carbonyl}amino)acetyl]amino}-2-(tetrahydro-2H-pyran-4-yl)acetyl]-10,10-dimethyl-N-{(1R,2S)-1-[(pyrrolidin-1-ylsulfonyl)carbamoyl]-2-vinylcyclopropyl}-7-azadispiro[3.0.4.1]decane-8-carboxamide]: 30 nM; for `C=C[C@@H]1C[C@]1(NC(=O)[C@@H]1C[C@@]2(CN1C(=O)[C@@H](NC(=O)[C@@H](NC(=O)[C@@H]1CCCCN1C(C)C)C1CCCCC1)C1CCCC1)C(C)(C)C21CCC1)C(=O)NS(=O)(=O)N1CCCC1` [Compound 66, (5R,8S)-7-[(2S)-2-{[(2S)-2-cyclohexyl-2-({[(2S)-1-isopropylpiperidin-2-yl]carbonyl}amino)acetyl]amino}-2-cyclopentylacetyl]-10,10-dimethyl-N-{(1R,2S)-1-[(pyrrolidin-1-ylsulfonyl)carbamoyl]-2-vinylcyclopropyl}-7-azadispiro[3.0.4.1]decane-8-carboxamide]: 5.5 nM; for `C=C[C@@H]1C[C@]1(NC(=O)[C@@H]1C[C@@]2(CN1C(=O)[C@@H](NC(=O)[C@@H](NC(=O)[C@@H]1CCCCN1C(C)C)C1CCCCC1)C(C)(C)C)C(C)(C)C21CCC1)C(=O)NS(=O)(=O)N1CCC(F)(F)C1` [Compound 143, (5R,8S)-7-[(2S)-2-{[(2S)-2-cyclohexyl-2-({[(2S)-1-isopropylpiperidin-2-yl]carbonyl}amino)acetyl]amino}-3,3-dimethylbutanoyl]-N-[(1R,2S)-1-{[(3,3-difluoropyrrolidin-1-yl)sulfonyl]carbamoyl}-2-vinylcyclopropyl]-10,10-dimethyl-7-azadispiro[3.0.4.1]decane-8-carboxamide]: 3 nM.
